For test [1], the system named is HXO-RB44 cell line. The test is described as follows: Percentage of growth inhibition of HXO-RB44 cells treated for 48 hr at 10E-6 M/L and incubated with 5 g/L MTT for 4 h. The class given is functional, Homo sapiens. The following applies: for inhibition: Homo sapiens.
Test [2] deals with HXO-RB44 cell line. The test is described as follows: Percentage of growth inhibition of HXO-RB44 cells treated for 48 hr at 10E-4 M/L and incubated with 5 g/L MTT for 4 h. The class given is functional, Homo sapiens. The following applies: for inhibition: Homo sapiens.
Test [3] has as its system Bel-7402. The test is described as follows: Percentage of growth inhibition of BEL-7402 cells treated for 48 hr at 10E-4 M/L and incubated with 5 g/L MTT for 4 h. The following applies: for inhibition: Homo sapiens. The class given is functional, Homo sapiens.
In test [4] the test system is HXO-RB44 cell line. In words: Percentage of growth inhibition of HXO-RB44 cells treated for 48 hr at 10E-5 M/L and incubated with 5 g/L MTT for 4 h. The class given is functional, Homo sapiens. The following applies: for inhibition: Homo sapiens.
The subject of test [5] is Bel-7402. In words: Percentage of growth inhibition of BEL-7402 cells treated for 48 hr at 10E-3 M/L and incubated with 5 g/L MTT for 4 h. The following applies: for inhibition: Homo sapiens. The class given is functional, Homo sapiens.
Test [6] deals with Bel-7402. In words: Percentage of growth inhibition of BEL-7402 cells treated for 48 hr at 10E-5 M/L and incubated with 5 g/L MTT for 4 h. The class given is functional, cell-based. The following applies: Homo sapiens.

Usually Inhibition stands for the relative decrease from the control value, in per cent. Low values mean a response near the control, high ones a response far below the control. Usually inhibition stands for the share of the control response that was lost under treatment.

On to `OC1CNCCNCCNC1`, for which the Inhibition is 1% with HXO-RB44 cell line [1]; 3% in the test on HXO-RB44 cell line [2]; 16% in the test on Bel-7402 [3]; 3% in the test with HXO-RB44 cell line [4]; 34% in the test with Bel-7402 [5].

In the case of COBALT (II) ION, the inhibition in the test with HXO-RB44 cell line [1] was 3%; with HXO-RB44 cell line [2] it was 7%; in the test on Bel-7402 [3], 5%; in the test with Bel-7402 [6], 0%; in the test on HXO-RB44 cell line [4], 3%; in the test on Bel-7402 [5], 79%.

Regarding COPPER, the inhibition came to 0% in the test on HXO-RB44 cell line [1]; 5% with HXO-RB44 cell line [2]; 3% with Bel-7402 [3]; 2% with Bel-7402 [6]; 3% with HXO-RB44 cell line [4]; 81% in the test on Bel-7402 [5].

The record behind these values is ChEMBL document CHEMBL1147515, “Nickel(II) and cobalt(II) complexes of hydroxyl-substituted triazamacrocyclic ligand as potential antitumor agents” (2004).
